{
  "source": "patent EP4778516A1",
  "about": "“CALCIFICATION ENHANCER FOR OSTEOBLAST MC3T3-E1 CELL” (Watanabe Oyster Laboratory Co., Ltd., priority 2023, dated 2025)",
  "key": {"[1]": {"tested_on": "MC3T3-E1 cells", "test": "Cell proliferation assay (cell counting)", "type": "cell-based, mouse", "settings": "Bay 11-7082 1, 10, or 50 nM, 3 days; Fig. 7B", "experimental": "To examine progression of cell proliferation, MC3T3-E1 cells (1×10^5/ml medium per well) were cultured using a 24-well plate in a-MEM supplemented with 10% FBS and 1% P/S at 37°C in a water-saturated atmosphere containing 5% CO2 and 95% air. The cells were cultured for 1, 2, 3, 4, or 5 days in the presence of a vehicle (1% ethanol as final concentration) or DHMBA (10 mM). In another experiment, to evaluate the effects of increased concentrations of DHMBA on MC3T3-E1 cells, the cells (1×10^5/ml per well) were cultured using a 24-well plate in DMEM (containing 10% FBS and 1% P/S). The cells were cultured for 3 days in the presence of either a reagent vehicle (1% ethanol as final concentration) or DHMBA (0.1, 1, 10, 100, or 1000 mM).\nTo evaluate the effects of DHMBA on cell death of osteoblasts MC3T3-E1, the cells (1×10^5/ml medium per well in a 24-well plate) were cultured in a-MEM containing 10% FBS and 1% P/S. After culturing for 3 days until reaching subconfluence, either a reagent vehicle (1% ethanol as final concentration) or DHMBA (0.1, 1, 10, 100, or 1000 mM) was added, and the cells were further cultured for 48 hours. After culture, to count the number of cells attached to each well, a […] containing 0.05% trypsin and EDTA (0.1 ml per well) was added, and then the culture plates were incubated at 37°C for 2 minutes. Subsequently, a-MEM (0.9 ml) containing 10% FBS and 1% P/S was added, and the cells were detached and mixed by pipetting. The cell suspension (0.1 ml) was mixed with 0.1 ml of 0.5% trypan blue staining solution. By this staining, […]. Viable cells were counted under a microscope (Olympus MTV-3) using a hemocytometer (Sigma-Aldrich, St. Louis, MO) and a cell counter (H-102P, Line Seiki Co., Ltd., Tokyo, Japan), and the average of two counts was calculated. Cell numbers were expressed as the number per well."}, "[2]": {"tested_on": "MC3T3-E1 cells", "test": "Effects of conditioned medium of LPS-stimulated RAW264.7 cells on MC3T3-E1 cells", "type": "cell-based, mouse", "settings": "Bay 11-7082 1 or 10 nM, conditioned medium 0.5 ml per well", "experimental": "A conditioned medium was obtained by culturing RAW264.7 cells.\nRAW264.7 cells (1×10^5 cells/ml per well in a 24-well plate) were cultured for 3 days after reaching subconfluence in DMEM containing 10% FBS and 1% P/S in the presence or absence of LPS (concentration in the medium: 100 ng/ml). After the cells were cultured, the medium (conditioned medium) was collected.\nTo evaluate the effects of the conditioned medium on proliferation of MC3T3-E1 cells, MC3T3-E1 cells were cultured for 3 days in a-MEM containing 10% FBS and 1% P/S. The cells were then cultured for 3 days using either the conditioned medium (1 ml, control) cultured without LPS or the conditioned medium (0.25 or 0.50 ml per well, adjusted to 1 ml with normal medium) cultured with LPS in the presence or absence of DHMBA (1 or 10 mM).\nFurther, to examine the effects on cell death of MC3T3-E1 cells, the cells (1×10^5 cells/ml per well) were cultured for 3 days in a-MEM containing 10% FBS and 1% P/S. After reaching subconfluence, the medium was replaced. The cells were then further cultured for 48 hours in either the normal medium, the conditioned medium (1 ml) cultured without LPS, or the conditioned medium (0.25 or 0.50 ml per well, adjusted to 1 ml with normal medium) with either a reagent vehicle (1% ethanol as final concentration) or DHMBA (1 or 10 mM). After culture, the cells were detached from each culture well, and cell numbers were counted in the same manner as described above.\nFurther, the effects of Bay 11-7082, which is an NF-kB signaling inhibitor, on proliferation or cell death of MC3T3-E1 cells were investigated. First, to examine the effects of Bay 11-7082 on proliferation of MC3T3-E1 cells, the cells (1×10^5 cells/1 ml per well in a 24-well plate) were cultured for 3 days until reaching subconfluence in the presence of 10% FBS, 1% P/S, and either a reagent vehicle (1% ethanol as final concentration) or Bay 11-7082 (1, 10, 50, 100, or 1000 nM). Next, MC3T3-E1 cells were cultured for 3 days in the presence of the conditioned medium (0.5 ml per well, adjusted to a total of 1 ml with normal medium) with or without Bay 11-7082 (1 or 10 nM) in the presence or absence of DHMBA (10 mM).\nIn another experiment, to evaluate the effects of Bay 11-7082 on cell death of MC3T3-E1, the cells (1×10^5 cells/1 ml per well in a 24-well plate) were cultured in a-MEM containing 10% FBS and 1% P/S. After culturing for 3 days until reaching subconfluence, the medium was replaced with a-MEM (1 ml) containing either the normal medium or the conditioned medium prepared by adding the normal medium to 0.5 ml per well of the conditioned medium, adjusted to a total volume of 1 ml. The cells were then further cultured for 48 hours in the presence of Bay 11-7082 (1 or 10 nM), or Bay 11-7082 (10 nM) in combination with DHMBA (10 mM). After culture, the cells were detached from each culture well, and cell numbers were counted as described above."}},
  "data": [
    {"smiles": "Cc1ccc(S(=O)(=O)/C=C/C#N)cc1", "note": "[Bay 11-7082, reference compound]", "values": [
      {"measurement": "number of MC3T3-E1 cells", "setting": "[1]", "value": "did not cause a significant reduction"},
      {"measurement": "effects of the conditioned medium on enhancement of cell death of MC3T3-E1 cells", "setting": "[2]; 48 hours, Fig. 7D", "value": "suppressed"},
      {"measurement": "effects of the conditioned medium on inhibition of proliferation of MC3T3-E1 cells", "setting": "[2]; 3 days, Fig. 7C", "value": "suppressed"}
    ]}
  ]
}
